What was measured:
[1] = tested on: SRS-A biosynthesis or release; experiment: SRS-A biosynthesis or release inhibitory activity (ovalbumin-challenged sensitized guinea pig lung fragments, bioassay on guinea pig ileum); assay type: cell-based, guinea pig (male Hartley); conditions: Cavia porcellus, read-out: Inhibition rate (SRS-A biosynthesis or release)
Procedure: [I] SRS-A biosynthesis or release inhibitory activity
SRS-A biosynthesis or release inhibitory activity was examined according to Koda et al. [Nippon yakurigakkaishi, 66, 194(1970)] and Kono-Watanabe et al. [J. Immunology, 125, 946(1980)].
Male Hartley guinea pigs weighing 350 to 450 g were sensitized by injecting once each 1 ml of an ovalbumin (100 mg/ml) into gluteus and peritoneal cavity. Four weeks after the injection, the animals were killed and then immediately the lung was perfused with cooled Tyrode's solution to remove blood. The lung was chopped into about 2 mm fragments and 500 mg of the fragments were suspended in 4.84 ml of Tyrode's solution, to which 0.01 ml of the test compound dissolved in dimethylsulfoxide (DMSO) was added. After incubation at 37° C. for 10 minutes, 0.15 ml of an ovalbumin (10 mg/ml) was added, followed by incubation at 37° C. for 20 minutes. In control, DMSO was added and the reaction was conducted in the same manner. The reaction mixture was filtered with gauze.
An amount of SRS-A in the filtrate was bioassayed using guinea pig ileum; i.e. the ileum (length: 2 to 3 cm) was suspended in Magnus tube containing aerated Tyrode's solution at 31° C. and, after the plateau of contraction was obtained, an amount of SRS-A in the above filtrate was bioassayed in the presence of 1 μM of atropine and 1 μM of pyrilamine. Inhibition rate (%) was calculated from a contraction in control as 100.

[2] = biological target: T1, epidermal growth factor acceptor-tyrosinekinase complex (Homo sapiens, UniProt P00533); experiment: Tyrosinekinase inhibitory activity (A-431 membrane specimen, EGF-stimulated, [γ-32P]ATP); assay type: biochemical, human (A-431 cell line derived from human cancerous cell); conditions: read-out: Inhibition rate (tyrosinekinase)
T1 construct: endogenous in cells; host or cells: A-431 (membrane specimen, not solubilized)
Procedure: Tyrosinekinase inhibitory activity of the compound of the present invention was measured by employing a method for measuring tyrosinekinase activity by G. Carpentor or by S. Cohen et al. [J. Biol. Chem., 254, 4884 (1979); J. Biol. Chem., 257, 1523 (1982)].
Cell line A-431 derived from human cancerous cell was cultured at 37° C. under the condition of 5% CO2 in Dulbecco's modified Eagle medium (made by DAINIPPON PHARMACEUTICAL CO., LTD.) containing 10% fetal bovine serum, 50 μg/ml of streptomycin, 50 IU/ml of penicillin G and 50 μg/ml of canamycin. The obtained cells were treated according to the above Cohen or Graham et al. to give membrane specimen containing epidermal growth factor acceptor-tyrosinekinase complex (hereinafter referred to as "membrane specimen"). The membrane specimen was employed in the following measurement without solubilization.
Sample dissolved in dimethylsulfoxide was added to a mixture of 20 mM of N-2-hydroxyethylpyperadino-N'-2-ethanesulfonate buffer (pH 7.4), 1 mM of MnCl2, 7.5 μg of bovine serum albumin and the membrane specimen (10 μg as protein). After incubation at 0° C. for 5 minutes, 100 ng of epidermal growth factor (hereinafter referred to as "EGF" was added and the mixture was further incubated at 0° C. for 15 minutes. [γ-^32 P]ATP (3000 Ci/mmol, 0.1 μCi) was added to make final volume of 70 μl. After incubation at 0° C. for 15 minutes, 50 μl of the reaction solution was soaked into Wattman 3 MM filter paper and immediately the reaction was stopped by 10% trichloroacetic acid-10 mM sodium pyrophosphate aqueous solution. The filter paper was sufficiently washed with the same solution and then washed with ethanol and dried. Radioactivity present in the filter paper was measured by liquid scintillation counter (A). Similarly, radioactivity was measured in case of the reaction without EGF (B), the reaction without the sample (C), and the reaction without both EGF and the sample (D) as a control.
Tyrosinekinase inhibition rate (%) was calculated by the following equation. [formula]

[3] = tested on: homologous passive cutaneous anaphylaxis (PCA); experiment: Inhibitory activity against homologous passive cutaneous anaphylaxis (PCA) in rats; assay type: in vivo, rat (male Wistar); conditions: 100 mg/kg, oral, 1 hour before the antigen
Procedure: [II]Inhibitory activity against homologous passive cutaneous anaphylaxis (PCA) in rats
Antiserum was prepared according to I. Mota [Immunology, 7, 681(1964)] and the PCA reaction was conducted according to Maruyama et al. [Nippon yakurigakkaishi, 74, 179(1978)].
(1) Preparation of antiserum
An ovalbumin solution (2 mg/ml) was injected intramuscularly into both thighs of male Wistar rats weighing 200 to 260 g in a volume of 0.5 ml/100 g body weight, and pertussis vaccine (Bordetella pertussis, 2×10^10 /ml, Chibaken Kessei Kenkyujo) was intraperitoneally administered at 1 ml/rat. Twelve days later, blood was taken from posterior aorta under ether anesthesia and antiserum was stored at -80° C.
Group of 4 male Wistar rats weighing 180 to 210 g were employed. Back of the animals was shaved and each 0.05 ml of antiserum (1:32 dilution) was injected intradermally at four sites on the back. After 48 hours, 1 ml of a mixture of ovalbumin (1 mg/ml) and Evans blue (5 mg/ml) was injected intravenously into the tail. 30 Minutes later, the animals were killed under ether anesthesia. The blue-dyed area (mm^2) formed was measured and an inhibition rate(%) was calculated as compared with control.
Test compound suspended in a 2.5% acacia containing 0.2% Tween 80 was administered orally in a volume of 0.5 ml/100 g body weight 1 hour before the antigen. Tranilast was administered orally 30 minutes before the antigen.

[4] = tested on: antigen-induced anaphylactic shock death; experiment: Protective effect against anaphylactic shock in actively sensitized guinea pigs; assay type: in vivo, guinea pig (male); conditions: Cavia porcellus; 100 mg/kg, oral, 30 minutes before antigen inhalation; survival 90 minutes or more; read-out: Protecting Effect (Number of test animal survivied/Number of test animal) (converted)
Procedure: [III] Protective effect against anaphylactic shock in actively sensitized guinea pigs
Antigen-induced anaphylactic shock death was observed according to John P. Devlin [Pulmonary and Antiallergic Drugs, John Wiley & Sons, 155 (1985)].
Each 100 mg/kg of ovalbumin dissolved in physiological saline was injected into peritoneal cavity and into gluteus of male guinea pigs weighing 250 to 350 g. 3 Days later, the animals were further injected intraperitoneally with ovalbumin (100 mg/kg). Those animals were employed for testing 3 to 4 weeks after first sensitization. Actively sensitized guinea pigs were pretreated subcutaneously with pyrilamine (1 mg/kg, 30 min.) to suppress histamine-dependent response and with propanolol ([…], 10 min.) to enhance the response induced by other than histamine before the antigen.
The animal was placed in a desiccator with a capacity of about 5 l and 0.5% aqueous solution of ovalbumin was inhaled with ultrasonic type nebulizer for five minutes. Anaphylactic shock death was observed and the animals survived for 90 minutes or more after antigen were estimated to be protected. The compounds of the present invention and antiasmatic agent were administered orally 30 minutes before the antigen inhalation. The control received vehicle alone similarly.

T1 sequence (P00533 25-1210): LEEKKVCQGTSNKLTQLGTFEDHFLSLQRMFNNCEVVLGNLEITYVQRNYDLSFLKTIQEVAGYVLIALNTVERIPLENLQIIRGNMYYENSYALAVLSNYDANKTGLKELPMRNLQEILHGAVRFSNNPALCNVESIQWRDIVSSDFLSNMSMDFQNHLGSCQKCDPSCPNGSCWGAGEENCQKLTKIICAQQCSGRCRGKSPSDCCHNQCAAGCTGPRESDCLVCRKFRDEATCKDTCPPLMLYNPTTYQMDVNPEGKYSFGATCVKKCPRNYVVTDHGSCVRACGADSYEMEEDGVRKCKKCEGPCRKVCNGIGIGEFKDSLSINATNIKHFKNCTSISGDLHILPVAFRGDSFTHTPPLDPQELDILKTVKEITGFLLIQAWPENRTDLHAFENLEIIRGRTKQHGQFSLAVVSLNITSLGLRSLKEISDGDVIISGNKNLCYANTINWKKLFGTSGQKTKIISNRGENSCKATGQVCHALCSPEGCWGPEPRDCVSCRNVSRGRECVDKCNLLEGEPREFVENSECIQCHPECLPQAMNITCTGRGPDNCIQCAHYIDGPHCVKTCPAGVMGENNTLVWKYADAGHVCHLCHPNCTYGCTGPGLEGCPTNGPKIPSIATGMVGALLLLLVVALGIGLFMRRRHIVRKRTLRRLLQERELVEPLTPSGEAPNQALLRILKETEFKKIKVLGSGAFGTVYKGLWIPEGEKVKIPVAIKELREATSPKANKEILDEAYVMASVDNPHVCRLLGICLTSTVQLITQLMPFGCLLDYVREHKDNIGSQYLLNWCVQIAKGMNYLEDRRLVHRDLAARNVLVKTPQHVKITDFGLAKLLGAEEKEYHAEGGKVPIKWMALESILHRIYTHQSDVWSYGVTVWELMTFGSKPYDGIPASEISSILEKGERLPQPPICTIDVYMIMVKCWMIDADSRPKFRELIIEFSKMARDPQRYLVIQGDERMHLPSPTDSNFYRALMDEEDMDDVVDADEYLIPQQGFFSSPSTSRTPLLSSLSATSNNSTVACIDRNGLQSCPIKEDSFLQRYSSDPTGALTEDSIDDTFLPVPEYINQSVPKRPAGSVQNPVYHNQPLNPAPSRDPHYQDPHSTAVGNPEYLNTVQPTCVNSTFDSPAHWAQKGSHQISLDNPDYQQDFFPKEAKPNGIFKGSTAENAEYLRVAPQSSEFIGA
T1 sequence (P01132 977-1029 partner limits assumed): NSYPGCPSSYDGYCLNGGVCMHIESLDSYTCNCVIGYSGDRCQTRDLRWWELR

Row | Structure (SMILES) | inhibition at 100 µM [1] [%] | inhibition at 10 µM [2] [%] | inhibition at 100 µM [2] [%] | Inhibition rate (PCA reaction, blue-dyed area) [3] [%] | responders at 100 mg/kg [4] [%]
1 | CCOc1cc(C=C2CCNC2=O)cc(CSc2ccccc2)c1O [XXVII] | 100 | 96 | 100 | 25 | 75
2 | CCOc1cc(C=C2C(=O)NN(c3ccccc3)C2=O)cc(CSc2ccccc2)c1O [XXXI] | 59 | 92 | 100 | 30 | 20
